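The compound was tested at five concentrations on cells cultured in 96-well plates, with a 48-hour exposure period. GI50 is the concentration that inhibits growth by half. TGI: concentration producing complete growth inhibition.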
Key:
Assay in all cases: growth of human tumour cells (NCI), 48 h
786-0 renal = tested on: 786-0 renal
A498 renal = tested on: A498 renal
A549 NSCLC = tested on: A549 NSCLC
ACHN renal = tested on: ACHN renal
BT-549 breast = tested on: BT-549 breast
CAKI-1 renal = tested on: CAKI-1 renal
CCRF-CEM leukemia = tested on: CCRF-CEM leukemia
COLO 205 colon = tested on: COLO 205 colon
DU-145 prostate = tested on: DU-145 prostate
EKVX NSCLC = tested on: EKVX NSCLC
HCC-2998 colon = tested on: HCC-2998 colon
HCT-116 colon = tested on: HCT-116 colon
HCT-15 colon = tested on: HCT-15 colon
HL-60(TB) leukemia = tested on: HL-60(TB) leukemia
HOP-62 NSCLC = tested on: HOP-62 NSCLC
HOP-92 NSCLC = tested on: HOP-92 NSCLC
HS 578T breast = tested on: HS 578T breast
HT29 colon = tested on: HT29 colon
IGROV1 ovarian = tested on: IGROV1 ovarian
K-562 leukemia = tested on: K-562 leukemia
KM12 colon = tested on: KM12 colon
LOX IMVI melanoma = tested on: LOX IMVI melanoma
M14 melanoma = tested on: M14 melanoma
MALME-3M melanoma = tested on: MALME-3M melanoma
MCF7 breast = tested on: MCF7 breast
MDA-MB-231 breast = tested on: MDA-MB-231 breast
MDA-MB-435 = tested on: MDA-MB-435
MDA-MB-468 breast = tested on: MDA-MB-468 breast
MOLT-4 leukemia = tested on: MOLT-4 leukemia
NCI-H226 lung = tested on: NCI-H226 lung
NCI-H23 lung = tested on: NCI-H23 lung
NCI-H460 lung = tested on: NCI-H460 lung
NCI-H522 lung = tested on: NCI-H522 lung
OVCAR-3 ovarian = tested on: OVCAR-3 ovarian
OVCAR-4 ovarian = tested on: OVCAR-4 ovarian
OVCAR-5 ovarian = tested on: OVCAR-5 ovarian
OVCAR-8 ovarian = tested on: OVCAR-8 ovarian
PC-3 prostate = tested on: PC-3 prostate
RPMI-8226 leukemia = tested on: RPMI-8226 leukemia
RXF 393 renal = tested on: RXF 393 renal
SF-268 CNS = tested on: SF-268 CNS
SF-295 CNS = tested on: SF-295 CNS
SF-539 CNS = tested on: SF-539 CNS
SK-MEL-2 melanoma = tested on: SK-MEL-2 melanoma
SK-MEL-28 melanoma = tested on: SK-MEL-28 melanoma
SK-MEL-5 melanoma = tested on: SK-MEL-5 melanoma
SK-OV-3 ovarian = tested on: SK-OV-3 ovarian
SN12C renal = tested on: SN12C renal
SNB-19 CNS = tested on: SNB-19 CNS
SNB-75 CNS = tested on: SNB-75 CNS
SR leukemia = tested on: SR leukemia
SW-620 colon = tested on: SW-620 colon
T-47D breast = tested on: T-47D breast
TK-10 renal = tested on: TK-10 renal
U251 CNS = tested on: U251 CNS
UACC-257 melanoma = tested on: UACC-257 melanoma
UACC-62 melanoma = tested on: UACC-62 melanoma
UO-31 renal = tested on: UO-31 renal

Compound `COc1cc(NC(=O)c2cc(-c3ccc(F)cc3F)ccc2O)cc(OC)c1OC` has a GI50 (786-0 renal) of 19.4 µM, a TGI (786-0 renal) of 46.6 µM and a GI50 (A498 renal) of 12.1 µM. It also gave a TGI (A498 renal) of 25.8 µM, a GI50 (A549 NSCLC) of 12.7 µM and a TGI (A549 NSCLC) of 35.1 µM. The GI50 (ACHN renal) was 16.2 µM, the TGI (ACHN renal) was 66.3 µM and the GI50 (BT-549 breast) was 5.29 µM. For the same compound, the TGI (BT-549 breast) was 22.6 µM, the GI50 (CAKI-1 renal) was 7.67 µM and the TGI (CAKI-1 renal) was 38.8 µM. For the same compound, the GI50 (CCRF-CEM leukemia) was 6.23 µM, the TGI (CCRF-CEM leukemia) was 29.7 µM and the GI50 (COLO 205 colon) was 18.2 µM. For the same compound, the TGI (COLO 205 colon) was 34.4 µM, the GI50 (DU-145 prostate) was 13.9 µM and the TGI (DU-145 prostate) was 39.4 µM. For the same compound, the GI50 (EKVX NSCLC) was 12.3 µM, the TGI (EKVX NSCLC) was 48.3 µM and the GI50 (HCC-2998 colon) was 11.9 µM. For the same compound, the TGI (HCC-2998 colon) was 25.4 µM, the GI50 (HCT-116 colon) was 13.7 µM and the TGI (HCT-116 colon) was 32.2 µM. It also gave a GI50 (HCT-15 colon) of 5.63 µM, a TGI (HCT-15 colon) of 24.9 µM and a GI50 (HL-60(TB) leukemia) of 6.09 µM. For the same compound, the TGI (HL-60(TB) leukemia) was > 100 µM, the GI50 (HOP-62 NSCLC) was 13.4 µM and the TGI (HOP-62 NSCLC) was 33.2 µM. It also gave a GI50 (HOP-92 NSCLC) of 3.49 µM, a TGI (HOP-92 NSCLC) of 15.9 µM and a GI50 (HS 578T breast) of 5.2 µM. The TGI (HS 578T breast) was 26.9 µM, the GI50 (HT29 colon) was 17.9 µM and the TGI (HT29 colon) was 33.6 µM. The GI50 (IGROV1 ovarian) was 10.4 µM, the TGI (IGROV1 ovarian) was 30.9 µM and the GI50 (K-562 leukemia) was 5.1 µM. For the same compound, the TGI (K-562 leukemia) was > 100 µM, the GI50 (KM12 colon) was 10.2 µM and the TGI (KM12 colon) was 23.3 µM. For the same compound, the GI50 (LOX IMVI melanoma) was 13 µM, the TGI (LOX IMVI melanoma) was 27.3 µM and the GI50 (M14 melanoma) was 15.3 µM. The TGI (M14 melanoma) was 31.8 µM, the GI50 (MALME-3M melanoma) was 11.4 µM and the TGI (MALME-3M melanoma) was 25.9 µM. For the same compound, the GI50 (MCF7 breast) was 9.64 µM, the TGI (MCF7 breast) was 43.1 µM and the GI50 (MDA-MB-231 breast) was 18.8 µM. For the same compound, the TGI (MDA-MB-231 breast) was 51.2 µM, the GI50 (MDA-MB-435) was 6.27 µM and the TGI (MDA-MB-435) was 19.4 µM. For the same compound, the GI50 (MDA-MB-468 breast) was 3.98 µM, the TGI (MDA-MB-468 breast) was 17 µM and the GI50 (MOLT-4 leukemia) was 5.9 µM. The TGI (MOLT-4 leukemia) was 36.4 µM, the GI50 (NCI-H226 lung) was 6.92 µM and the TGI (NCI-H226 lung) was 30 µM. The GI50 (NCI-H23 lung) was 4.75 µM, the TGI (NCI-H23 lung) was 18.9 µM and the GI50 (NCI-H460 lung) was 6.51 µM. For the same compound, the TGI (NCI-H460 lung) was 20.2 µM, the GI50 (NCI-H522 lung) was 3.19 µM and the TGI (NCI-H522 lung) was 13.7 µM. It also gave a GI50 (OVCAR-3 ovarian) of 5.49 µM, a TGI (OVCAR-3 ovarian) of 32.4 µM and a GI50 (OVCAR-4 ovarian) of 4.45 µM. It also gave a TGI (OVCAR-4 ovarian) of 31.4 µM, a GI50 (OVCAR-5 ovarian) of 19.3 µM and a TGI (OVCAR-5 ovarian) of 43.4 µM. The GI50 (OVCAR-8 ovarian) was 13 µM, the TGI (OVCAR-8 ovarian) was > 100 µM and the GI50 (PC-3 prostate) was 12.5 µM. It also gave a TGI (PC-3 prostate) of 61.5 µM, a GI50 (RPMI-8226 leukemia) of 3.4 µM and a TGI (RPMI-8226 leukemia) of 45.9 µM. For the same compound, the GI50 (RXF 393 renal) was 2.86 µM, the TGI (RXF 393 renal) was 16.8 µM and the GI50 (SF-268 CNS) was 6.03 µM. For the same compound, the TGI (SF-268 CNS) was 28.3 µM, the GI50 (SF-295 CNS) was 15.6 µM and the TGI (SF-295 CNS) was 32.6 µM. The GI50 (SF-539 CNS) was 12.4 µM, the TGI (SF-539 CNS) was 26.5 µM and the GI50 (SK-MEL-2 melanoma) was 3.01 µM. It also gave a TGI (SK-MEL-2 melanoma) of 13.9 µM, a GI50 (SK-MEL-28 melanoma) of 8.98 µM and a TGI (SK-MEL-28 melanoma) of 22.3 µM. The GI50 (SK-MEL-5 melanoma) was 3.16 µM, the TGI (SK-MEL-5 melanoma) was 10.6 µM and the GI50 (SK-OV-3 ovarian) was 8.43 µM. It also gave a TGI (SK-OV-3 ovarian) of 23.9 µM, a GI50 (SN12C renal) of 6.12 µM and a TGI (SN12C renal) of 22.1 µM. For the same compound, the GI50 (SNB-19 CNS) was 6.63 µM, the TGI (SNB-19 CNS) was 29.5 µM and the GI50 (SNB-75 CNS) was 6.57 µM. It also gave a TGI (SNB-75 CNS) of 23.8 µM, a GI50 (SR leukemia) of 4.2 µM and a TGI (SR leukemia) of 40.5 µM. The GI50 (SW-620 colon) was 14.2 µM, the TGI (SW-620 colon) was 29 µM and the GI50 (T-47D breast) was 2.73 µM. For the same compound, the TGI (T-47D breast) was 9.31 µM, the GI50 (TK-10 renal) was 12 µM and the TGI (TK-10 renal) was 45.4 µM. The GI50 (U251 CNS) was 11 µM, the TGI (U251 CNS) was 27.1 µM and the GI50 (UACC-257 melanoma) was 10.2 µM. For the same compound, the TGI (UACC-257 melanoma) was 22.4 µM, the GI50 (UACC-62 melanoma) was 3.52 µM and the TGI (UACC-62 melanoma) was 13.4 µM. It also gave a GI50 (UO-31 renal) of 5.24 µM and a TGI (UO-31 renal) of 23.5 µM.

Reference: PubChem BioAssay (NCI)
